Test systems include DMS 273 small cell lung; RXF-631 renal; XF 498 CNS; KM20L2 colon; HS 578T breast; NCI/ADR-RES ovarian; P388/ADR leukemia; MDA-N; SN12K1 renal; P388 leukemia.
What all share (assay): NCI tumour cell line growth inhibition, 48 h

Each structure is given as a SMILES string. “And” between values parts separate entries of the source, which are not always exact repeats. Identical values can stand only once.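 Grown in 96-well plates, cells were treated for 48 hours with each compound at five concentrations. Insufficient inhibition: endpoint recorded as highest concentration tested. GI50 is the concentration that inhibits growth by half. TGI: concentration producing complete growth inhibition.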 Some results are limits rather than exact numbers.

Consider `Cc1ccc(S(=O)(=O)OC(C=O)C(O)C(O)COC(c2ccccc2)(c2ccccc2)c2ccccc2)cc1` (configuration not stated), for which the TGI with DMS 273 small cell lung was determined as 37.9 µM; with RXF-631 renal it was 10.5 µM; in the assay on XF 498 CNS it was 29.2 µM; in the assay on KM20L2 colon, 27.4 µM.
Regarding `CCN1N=CSC12C(=O)N(c1ccccc1)C(=O)N2c1ccccc1` (configuration not stated), the TGI in the assay with RXF-631 renal, in the assay on XF 498 CNS and in the assay on KM20L2 colon was more than 100 µM throughout.
Take `CC(=O)OCC1OC(n2cnc3c(I)nc(I)nc32)C(OC(C)=O)C1OC(C)=O` (configuration not stated): the TGI was 20.2 µM in the assay with DMS 273 small cell lung, 34.9 µM in the assay on RXF-631 renal, 35.9 µM in the assay with XF 498 CNS and 32.7 µM in the assay on KM20L2 colon.
For the compound `S=c1nc(/C=C/c2ccc(Cl)c(Cl)c2)[nH][nH]1`, the GI50 with HS 578T breast and with NCI/ADR-RES ovarian was more than 100 µM each time. In addition, the TGI was more than 100 µM in the assay with HS 578T breast; more than 100 µM in the assay on DMS 273 small cell lung; 95.5 µM in the assay with XF 498 CNS; more than 100 µM with NCI/ADR-RES ovarian; more than 100 µM in the assay on KM20L2 colon.
`Clc1ccc(C2=NN(c3ccccc3)C3c4cc(Br)ccc4OCC23)cc1` (configuration not stated): the TGI in the assay on DMS 273 small cell lung, with RXF-631 renal, with XF 498 CNS and in the assay with KM20L2 colon was more than 100 µM throughout.
With `COc1ccc(Nc2nc3c(N)cc(C(F)(F)F)cc3nc2-c2ccccc2)cc1`, the TGI in the assay on DMS 273 small cell lung, with RXF-631 renal, with XF 498 CNS and in the assay with KM20L2 colon was more than 100 µM each time.
Take `COC1C2c3ccccc3C(C#N)(Cc3ccc4c(c32)OCO4)N1C(=O)c1ccccc1` (configuration not stated): the TGI in the assay with DMS 273 small cell lung was 98.3 µM; with RXF-631 renal, more than 100 µM; in the assay on XF 498 CNS, 98.1 µM; with KM20L2 colon, more than 100 µM.
`CN(C)CC1CCCC(CN(C)C)C1=O` (configuration not stated): the GI50 in the assay on HS 578T breast is 3.26 µM and 26.5 µM. The TGI in the assay on HS 578T breast was > 100 µM and 80.3 µM; in the assay with P388/ADR leukemia, 0.226 µM; in the assay on DMS 273 small cell lung, 26.8 µM; with XF 498 CNS, 3.69 µM; in the assay with MDA-N, 25.6 µM and 28.4 µM; with SN12K1 renal it was 30.4 µM. The TGI in the assay on P388 leukemia stood at 2.13 µM; with KM20L2 colon, 13.2 µM.
Take `C=C1C(=O)C23C(O)C1CCC2C12CO[C@]3(O)[C@@H](O)C1C(C)(C)CCC2O` (some centres not stated): the TGI is 28.1 µM in the assay with DMS 273 small cell lung, 34.5 µM in the assay with RXF-631 renal, 5.24 µM with XF 498 CNS and 30.5 µM in the assay with KM20L2 colon.
Regarding `COc1ccc(C(=O)Nc2ccccc2)cc1[N+](=O)[O-]`, the TGI in the assay with DMS 273 small cell lung, in the assay on RXF-631 renal, with XF 498 CNS and with KM20L2 colon was more than 100 µM throughout.
In the case of `Cc1ccc(NC(=O)CCC(=O)C2CC(=O)CCC2=O)cc1C` (configuration not stated), the TGI in the assay with DMS 273 small cell lung, in the assay on RXF-631 renal and with KM20L2 colon was more than 100 µM throughout.
Turning to `CC1(C)CC[C@]2(C(=O)O)CCC3(C)C(=CCC4[C@@]5(C)CC[C@H](OC6OCC(O)C(O)C6OC6OC(CO)C(O)C(O)C6O)C(C)(C)C5CC[C@]43C)C2C1` (some centres not stated), the TGI in the assay with DMS 273 small cell lung worked out at 3.93 µM; in the assay on RXF-631 renal, 3.21 µM; with XF 498 CNS, 4.59 µM; in the assay on KM20L2 colon it was 3.7 µM.
On to `O=C(NCCS(=O)(=O)N1C(=O)C2CCCN2C(=O)[C@@H]1Cc1ccccc1)OCc1ccccc1` (some centres not stated), for which the figures for the TGI with RXF-631 renal, in the assay on XF 498 CNS and in the assay with KM20L2 colon were more than 100 µM, 11 µM and more than 100 µM, respectively.
With `CCN1CCC(O)(c2ccccc2)C(C(=O)c2ccccc2)C1` (configuration not stated), the results for the TGI in the assay with DMS 273 small cell lung, in the assay on XF 498 CNS and with KM20L2 colon were more than 100 µM, 29.9 µM and more than 60.7 µM, respectively.
`Nc1cc2c3c(cccc3c1)C(=O)N(CCN1CCN(CCN3C(=O)c4cccc5cc(N)cc(c45)C3=O)CC1)C2=O`: the TGI in the assay on DMS 273 small cell lung, in the assay on RXF-631 renal, in the assay on XF 498 CNS and in the assay with KM20L2 colon was more than 100 µM in each case.
Take `Nc1ncn([C@@H]2C=C(CO)C(O)C2O)c(=O)n1` (some centres not stated): the TGI in the assay on DMS 273 small cell lung, with RXF-631 renal, in the assay on XF 498 CNS and in the assay on KM20L2 colon was more than 100 µM each time.
As for `Cc1ccc(C)c(NC(=O)CCC(=O)CC(=O)C(C)(C)C)c1`, the TGI in the assay with DMS 273 small cell lung, in the assay on XF 498 CNS and in the assay with KM20L2 colon was more than 100 µM throughout.
As for `O=C1NCC2=C1CCC1c3ccccc3CCN21` (configuration not stated), the TGI with DMS 273 small cell lung, in the assay on XF 498 CNS and in the assay on KM20L2 colon was more than 100 µM throughout.
Consider `CC1(C)CC(C2CC(C)(C)CC(C)(C)[C@H]2O)[C@@H](O)C(C)(C)C1` (some centres not stated), for which the TGI in the assay on DMS 273 small cell lung, in the assay with XF 498 CNS and in the assay on KM20L2 colon was more than 100 µM in each case.
Turning to `CC1=C(C(=O)Nc2cc(F)c(F)cc2F)C(c2cccc([N+](=O)[O-])c2)C(C(=O)Nc2ccccc2C(F)(F)F)=C(C)N1` (configuration not stated), the TGI in the assay with RXF-631 renal was 49.3 µM; in the assay on KM20L2 colon it was 78.4 µM.
With `CCOC(=O)C1=C(O)CSC1=Nc1ccc(N=C2SCC(O)=C2C(=O)OCC)cc1`, the TGI with DMS 273 small cell lung is 42.8 µM; in the assay with XF 498 CNS, 42 µM; with KM20L2 colon, more than 100 µM.

The values are drawn from PubChem BioAssay (NCI).
